Test results published in ChEMBL document CHEMBL1201862, “PubChem BioAssay data set” (2004).
Several values for one entry are separate records, joined by “and”; a condition that tells them apart may be missing. Identical values can stand only once.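 Test compounds were applied to cells in 96-well plates for 48 hours at 5 doses. Abbreviation: GI50, concentration required for 50% inhibition of growth.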 Activity calls are given as the source filed them. No stated cut-off is given here; in the data, active = GI50 up to about 1.1 µM and inactive = higher.

Assays:
Experiment in all cases: NCI anticancer screen, dose series, 48 h
[1] = test system: DU-145
[2] = test system: U-251
[3] = test system: OVCAR-5
[4] = test system: HT-29
[5] = test system: SW-620
[6] = test system: NCI-H23
[7] = test system: K562
[8] = test system: 786-0
[9] = test system: CAKI-1
[10] = test system: NCI-H522
[11] = test system: M14
[12] = test system: CCRF-CEM
[13] = test system: EKVX
[14] = test system: SNB-19
[15] = test system: SK-MEL-28
[16] = test system: NCI-H460
[17] = test system: SF-268
[18] = test system: PC-3
[19] = test system: IGROV-1
[20] = test system: MDA-MB-231
[21] = test system: NCI/ADR-RES
[22] = test system: ACHN
[23] = test system: OVCAR-3
[24] = test system: SR
[25] = test system: UACC-62
[26] = test system: UO-31
[27] = test system: HCC 2998
[28] = test system: COLO 205
[29] = test system: HOP-62
[30] = test system: KM12
[31] = test system: MDA-MB-435
[32] = test system: SK-MEL-5
[33] = test system: HOP-92
[34] = test system: RXF 393
[35] = test system: MCF7
[36] = test system: SF-539
[37] = test system: Malme-3M
[38] = test system: A549
[39] = test system: SNB-75
[40] = test system: MDA-N
[41] = test system: T47D
[42] = test system: MOLT-4
[43] = test system: RPMI-8226
[44] = test system: UACC-257
[45] = test system: LOX IMVI
[46] = test system: NCI-H226
[47] = test system: HCT-15
[48] = test system: OVCAR-8
[49] = test system: SK-MEL-2
[50] = test system: TK-10
[51] = test system: OVCAR-4
[52] = test system: Hs-578T
[53] = test system: SF-295
[54] = test system: A498
[55] = test system: SK-OV-3
[56] = test system: SN12C
[57] = test system: HCT-116
[58] = test system: HL-60

CCC1(O)CC2CC(=O)OC2C1O (configuration not stated)
GI50 [1]: > 100 µM (inactive) | GI50 [2]: > 100 µM (inactive) | GI50 [3]: > 100 µM (inactive) | GI50 [4]: > 100 µM (inactive) | GI50 [5]: > 100 µM (inactive) | GI50 [6]: > 100 µM (inactive) | GI50 [7]: > 100 µM (inactive) | GI50 [8]: > 100 µM (inactive) | GI50 [9]: > 100 µM (inactive) | GI50 [10]: > 100 µM (inactive) | GI50 [11]: > 100 µM (inactive) | GI50 [12]: 0.423 µM (active) | GI50 [13]: > 100 µM (inactive) | GI50 [14]: > 100 µM (inactive) | GI50 [15]: > 100 µM (inactive) | GI50 [16]: > 100 µM (inactive) | GI50 [17]: > 100 µM (inactive) | GI50 [18]: > 100 µM (inactive) | GI50 [19]: > 100 µM (inactive) | GI50 [20]: > 100 µM (inactive) | GI50 [21]: > 100 µM (inactive) | GI50 [22]: > 100 µM (inactive) | GI50 [23]: > 100 µM (inactive) | GI50 [24]: > 100 µM (inactive) | GI50 [25]: > 100 µM (inactive) | GI50 [26]: > 100 µM (inactive) | GI50 [27]: > 100 µM (inactive) | GI50 [28]: > 100 µM (inactive) | GI50 [29]: > 100 µM (inactive) | GI50 [30]: > 100 µM (inactive) | GI50 [31]: > 100 µM (inactive) | GI50 [32]: > 100 µM (inactive) | GI50 [33]: > 100 µM (inactive) | GI50 [34]: > 100 µM (inactive) | GI50 [35]: > 100 µM (inactive) | GI50 [36]: > 100 µM (inactive) | GI50 [37]: > 100 µM (inactive) | GI50 [38]: > 100 µM (inactive) | GI50 [39]: > 100 µM (inactive) | GI50 [40]: > 100 µM (inactive) | GI50 [41]: > 100 µM (inactive) | GI50 [42]: > 100 µM (inactive) | GI50 [43]: > 100 µM (inactive) | GI50 [44]: > 100 µM (inactive) | GI50 [45]: > 100 µM (inactive) | GI50 [46]: > 100 µM (inactive) | GI50 [47]: > 100 µM | GI50 [48]: > 100 µM (inactive) | GI50 [49]: > 100 µM (inactive) | GI50 [50]: > 100 µM (inactive) | GI50 [51]: > 100 µM (inactive) | GI50 [52]: > 100 µM (inactive) | GI50 [53]: > 100 µM (inactive) | GI50 [54]: > 100 µM (inactive) | GI50 [55]: > 100 µM (inactive)

COc1ccc(C2c3c(-c4ccccc4)nn(-c4ccccc4)c3Oc3ncn4nc(CC#N)nc4c32)cc1OC (configuration not stated)
GI50 [7]: 22.6 µM (inactive) and > 23.7 µM (inactive) | GI50 [13]: 7.89 µM (inactive) | GI50 [24]: 5.57 µM (inactive) | GI50 [56]: 15 µM (inactive) and > 20.1 µM (inactive) | GI50 [41]: 10.1 µM (inactive) | GI50 [42]: > 100 µM (inactive) | GI50 [47]: 14 µM and 20.3 µM

Cc1ncc([N+](=O)[O-])n1CC(O)Cn1cnc([N+](=O)[O-])n1 (configuration not stated)
GI50 [57]: > 100 µM (inactive) | GI50 [2]: > 100 µM (inactive) | GI50 [3]: > 100 µM (inactive) | GI50 [4]: > 100 µM (inactive) | GI50 [5]: > 100 µM (inactive) | GI50 [6]: > 100 µM (inactive) | GI50 [7]: > 100 µM (inactive) | GI50 [58]: 64.1 µM (inactive) | GI50 [8]: > 100 µM (inactive) | GI50 [10]: > 100 µM (inactive) | GI50 [12]: > 100 µM (inactive) | GI50 [13]: > 100 µM (inactive) | GI50 [15]: > 100 µM (inactive) | GI50 [16]: > 100 µM (inactive) | GI50 [17]: > 100 µM (inactive) | GI50 [18]: > 100 µM (inactive) | GI50 [22]: > 100 µM (inactive) | GI50 [23]: > 100 µM (inactive) | GI50 [24]: > 100 µM (inactive) | GI50 [27]: > 100 µM (inactive) | GI50 [56]: > 100 µM (inactive) | GI50 [29]: > 100 µM (inactive) | GI50 [30]: > 100 µM (inactive) | GI50 [32]: > 100 µM (inactive) | GI50 [35]: > 100 µM (inactive) | GI50 [36]: > 100 µM (inactive) | GI50 [37]: 55.1 µM (inactive) | GI50 [38]: > 100 µM (inactive) | GI50 [39]: > 100 µM (inactive) | GI50 [42]: > 100 µM (inactive) | GI50 [43]: > 100 µM (inactive) | GI50 [44]: > 100 µM (inactive) | GI50 [46]: > 100 µM (inactive) | GI50 [47]: > 100 µM | GI50 [48]: > 100 µM (inactive) | GI50 [49]: > 100 µM (inactive) | GI50 [50]: > 10 µM (inactive) | GI50 [52]: > 100 µM (inactive) | GI50 [53]: > 100 µM (inactive) | GI50 [54]: 2.84 µM (inactive)
